From patent US9757393B2 (priority 2015, dated 2017)

What was measured:
HFD-fed C57BL/6J mice [1] = assay: Body weight, food intake and tissue weight in HFD-fed mice; assay type: in vivo; settings: for Absolute Tissue Weight BAT / Absolute Tissue Weight EWAT / Absolute Tissue Weight Liver / Absolute Tissue Weight MWAT / Absolute Tissue Weight RWAT / Absolute Tissue Weight Skeletal muscle / weight gain: oral gavage daily for 4 weeks; for weight of visceral fat: vs HF group
Method: (§1) Experimental Animals: the experiments are conducted under the guidelines of the Institutional Animal Care and Use Committee of Central Taiwan University of Science and Technology. As previously described, four-week-old male C57BL/6J mice (n=63) is purchased from the National Laboratory Animal Breeding and Research Center, Ministry of Science and Technology. After 1-week of acclimatization, mice are designed to initiate the study, and the study lasts for 12 weeks. […] The CON group and high-fat control (HF) group are given with vehicle only. The low-fat diet consisted of fat 10%, whereas the high-fat diet (HFD) consisted of fat 45% (of total energy, % kcal). The compositions of the experimental diets are shown as described. At the end of the study, food is derived from the animals (from 10 p.m. to 10 a.m.). On the next day, the mice are sacrificed, and blood and tissue are collected for analysis. Livers, skeletal muscles, and white adipose tissues (WATs) (including epididymal, mesenteric and retroperitoneal WAT) are excised and weighed, and then immediately stored in a freezer at −80° C. Heparin (30 units/mL) (Sigma) is added to blood samples. Plasma samples are collected by centrifugation at 1600 g for 15 min at 4° C. within 30 min, and plasma is obtained for insulin and leptin level analysis.
Body Weight, Food Intake and Tissue Weight. Throughout the embodiment, body weight and food intake are daily recorded at the same time. Body weight gain is defined as the difference between 1 day and the next day. The pellet food is weighed and placed in a cage food container. After 24 h, the remaining food is weighed and the crumbs are collected as much as possible. Based on the difference between 1 day and the next day, the daily food intake is calculated.

HFD-fed C57BL/6J mice [2] = assay: Blood glucose, HbA1c, blood lipids, insulin and leptin levels in HFD-fed mice; assay type: in vivo; settings: for Blood Profiles FFA / Blood Profiles HDL-C / Blood Profiles HbA1c / Blood Profiles LDL-C: oral gavage daily for 4 weeks; for blood glucose levels / blood insulin levels / blood leptin levels / blood total cholesterol (TC) levels / blood triglyceride (TG) level: vs HF group
Method: as §1
Blood Glucose and HbA1c Levels. Blood samples (0.8 mL) are collected from the retro-orbital sinuses of fasting mice, and glucose level is measured by the glucose oxidase method (model 1500; Sidekick Glucose Analyzer; YSI Inc., Yellow Springs, Ohio, USA). Percent HbA1c is detected with a Hemoglobin A1c kit (BioSystems S.A., Barcelona, Spain). Plasma triglycerides (TG), total cholesterol (TC), free fatty acids (FFA), high-density lipoprotein cholesterol (HDL-C), and low density lipoprotein cholesterol (LDL-C) are determined using commercial assay kits (Triglycerides-E test, Cholesterol-E test, and FFA-C test, Wako Pure Chemical, Osaka, Japan; HDL-C-test and LDL-C-test, Roche Diagnostics GmbH, Indianapolis, USA) according to their instructions. A mouse insulin ELISA kit (Sibayagi, Gunma, Japan) and mouse leptin ELISA kit (Morinaga, Yokohama, Japan) are used to measure blood insulin and leptin levels, respectively.

phospho-AMPK (Thr172) = assay: Western blotting of phospho-AMPK (Thr172) in liver tissue and skeletal muscle; assay type: in vivo, C57BL/6J mice; settings: HFD-fed mice
Method: as §1
Protein extractions and immunoblots for the determination of membrane GLUT4, phospho-AMPK (Thr172), and phospho-Akt (Ser 473) proteins are carried out on frozen skeletal muscle and liver tissue from mice, which follows a previous paper. Additionally, membrane GLUT4 is carried out on frozen skeletal muscle from mice, and the total membrane fractions are collected with buffer and centrifuged as a previously described. The protein contents of membrane GLUT4, phospho-AMPK, phospho-Akt, total AMPK, and total Akt are detected by western blotting. Western blotting has been determined as described elsewhere. Subsequently, antibodies are detected using horseradish peroxidase linked to a goat anti-IgG rabbit secondary antibody and visualized using an ECL system. Membrane GLUT4, structural proteins GAPDH and β-actin are purchased from Santa Cruz Biotechnology (Santa Cruz, Calif., USA); phospho-AMPK was obtained from Abcam Inc. (Cambridge, Mass., USA); phospho-Akt, total AMPK, and total Akt are from Cell Signaling Technology, Inc. (Danver Mass., USA); the BCA protein assay kit is from Thermo Scientific (Rockford, Ill., USA); and the ECL reagent kit is from GE Healthcare BioSciences (Buckinghamshire, UK). The secondary antibody antirabbit is from Jackson ImmunoResearch Laboratories, Inc. (West Grove, Pa., USA). The density blotting is analyzed using Alpha Easy FC software (Alpha Innotech Corp., Randburg, South Africa). Structural proteins GAPDH and β-actin are obtained by stripping the nitrocellulose membrane proteins of liver and skeletal muscle, respectively.

CC(C)[C@@H](C)C=C[C@@H](C)[C@H]1CC[C@H]2C3=CCC4C[C@@H](O)CC[C@]4(C)C3=CC[C@]12C (stereo partly drawn) [ergostatrien-3β-ol, ergosta-7,9(11),22-trien-3β-ol]
food intake (consumption of high-fat diet) (HFD-fed C57BL/6J mice [1]; all treated groups compared with HF mice): similarly | Absolute Tissue Weight BAT (HFD-fed C57BL/6J mice [1]; 10 mg/kg/day): 0.160 ± 0.007 g | Absolute Tissue Weight EWAT (HFD-fed C57BL/6J mice [1]; 10 mg/kg/day): 0.853 ± 0.031 g | Absolute Tissue Weight Liver (HFD-fed C57BL/6J mice [1]; 10 mg/kg/day): 0.813 ± 0.025 g | Absolute Tissue Weight MWAT (HFD-fed C57BL/6J mice [1]; 10 mg/kg/day): 0.276 ± 0.032 g | Absolute Tissue Weight RWAT (HFD-fed C57BL/6J mice [1]; 10 mg/kg/day): 0.281 ± 0.016 g | Absolute Tissue Weight Skeletal muscle (HFD-fed C57BL/6J mice [1]; 10 mg/kg/day): 0.781 ± 0.034 g | weight gain (HFD-fed C57BL/6J mice [1]; 10 mg/kg/day): 1.30 ± 0.39 g | Absolute Tissue Weight BAT (HFD-fed C57BL/6J mice [1]; 20 mg/kg/day): 0.143 ± 0.016 g | Absolute Tissue Weight EWAT (HFD-fed C57BL/6J mice [1]; 20 mg/kg/day): 0.774 ± 0.057 g | Absolute Tissue Weight Liver (HFD-fed C57BL/6J mice [1]; 20 mg/kg/day): 0.819 ± 0.025 g | Absolute Tissue Weight MWAT (HFD-fed C57BL/6J mice [1]; 20 mg/kg/day): 0.276 ± 0.032 g | Absolute Tissue Weight RWAT (HFD-fed C57BL/6J mice [1]; 20 mg/kg/day): 0.283 ± 0.025 g | Absolute Tissue Weight Skeletal muscle (HFD-fed C57BL/6J mice [1]; 20 mg/kg/day): 1.167 ± 0.045 g | weight gain (HFD-fed C57BL/6J mice [1]; 20 mg/kg/day): 1.13 ± 0.20 g | Absolute Tissue Weight BAT (HFD-fed C57BL/6J mice [1]; 40 mg/kg/day): 0.144 ± 0.013 g | Absolute Tissue Weight EWAT (HFD-fed C57BL/6J mice [1]; 40 mg/kg/day): 0.736 ± 0.070 g | Absolute Tissue Weight Liver (HFD-fed C57BL/6J mice [1]; 40 mg/kg/day): 0.796 ± 0.041 g | Absolute Tissue Weight MWAT (HFD-fed C57BL/6J mice [1]; 40 mg/kg/day): 0.244 ± 0.024 g | Absolute Tissue Weight RWAT (HFD-fed C57BL/6J mice [1]; 40 mg/kg/day): 0.243 ± 0.041 g | Absolute Tissue Weight Skeletal muscle (HFD-fed C57BL/6J mice [1]; 40 mg/kg/day): 1.351 ± 0.153 g | weight gain (HFD-fed C57BL/6J mice [1]; 40 mg/kg/day): 0.37 ± 0.38 g | weight of visceral fat (HFD-fed C57BL/6J mice [1]; 10 mg/kg/day): decrease | weight of visceral fat (HFD-fed C57BL/6J mice [1]; 20 mg/kg/day): decrease | weight of visceral fat (HFD-fed C57BL/6J mice [1]; 40 mg/kg/day): decrease | levels of TG (circulating) (HFD-fed C57BL/6J mice [2]; dose not specified): moderate reduction | Blood Profiles FFA (HFD-fed C57BL/6J mice [2]; 10 mg/kg/day): 1.06 ± 0.10 meq/L | Blood Profiles HDL-C (HFD-fed C57BL/6J mice [2]; 10 mg/kg/day): 82.2 ± 3.9 mg/dL | Blood Profiles HbA1c (HFD-fed C57BL/6J mice [2]; 10 mg/kg/day): 5.8 ± 0.7 % | Blood Profiles FFA (HFD-fed C57BL/6J mice [2]; 20 mg/kg/day): 1.05 ± 0.09 meq/L | Blood Profiles HDL-C (HFD-fed C57BL/6J mice [2]; 20 mg/kg/day): 83.0 ± 2.0 mg/dL | Blood Profiles HbA1c (HFD-fed C57BL/6J mice [2]; 20 mg/kg/day): 5.7 ± 0.5 % | Blood Profiles LDL-C (HFD-fed C57BL/6J mice [2]; 20 mg/kg/day): 103.7 ± 10.8 mg/dL | Blood Profiles FFA (HFD-fed C57BL/6J mice [2]; 40 mg/kg/day): 1.03 ± 0.05 meq/L | Blood Profiles HDL-C (HFD-fed C57BL/6J mice [2]; 40 mg/kg/day): 83.8 ± 1.6 mg/dL | Blood Profiles HbA1c (HFD-fed C57BL/6J mice [2]; 40 mg/kg/day): 5.1 ± 0.3 % | Blood Profiles LDL-C (HFD-fed C57BL/6J mice [2]; 40 mg/kg/day): 86.8 ± 11.5 mg/dL | blood glucose levels (HFD-fed C57BL/6J mice [2]; 10 mg/kg/day): significantly reduce | blood insulin levels (HFD-fed C57BL/6J mice [2]; 10 mg/kg/day): decrease | blood leptin levels (HFD-fed C57BL/6J mice [2]; 10 mg/kg/day): decrease | blood total cholesterol (TC) levels (HFD-fed C57BL/6J mice [2]; 10 mg/kg/day): lower | blood triglyceride (TG) level (HFD-fed C57BL/6J mice [2]; 10 mg/kg/day): decrease | blood glucose levels (HFD-fed C57BL/6J mice [2]; 20 mg/kg/day): significantly reduce | blood insulin levels (HFD-fed C57BL/6J mice [2]; 20 mg/kg/day): decrease | blood leptin levels (HFD-fed C57BL/6J mice [2]; 20 mg/kg/day): decrease | blood total cholesterol (TC) levels (HFD-fed C57BL/6J mice [2]; 20 mg/kg/day): lower | blood triglyceride (TG) level (HFD-fed C57BL/6J mice [2]; 20 mg/kg/day): decrease | blood glucose levels (HFD-fed C57BL/6J mice [2]; 40 mg/kg/day): significantly reduce | blood insulin levels (HFD-fed C57BL/6J mice [2]; 40 mg/kg/day): decrease | blood leptin levels (HFD-fed C57BL/6J mice [2]; 40 mg/kg/day): decrease | blood total cholesterol (TC) levels (HFD-fed C57BL/6J mice [2]; 40 mg/kg/day): lower | blood triglyceride (TG) level (HFD-fed C57BL/6J mice [2]; 40 mg/kg/day): decrease | protein contents of phospho-AMPK (phospho-AMPK (Thr172); liver tissue, 10 mg/kg/day): significantly increased | protein contents of phospho-AMPK (phospho-AMPK (Thr172); liver tissue, 20 mg/kg/day): significantly increased | protein contents of phospho-AMPK (phospho-AMPK (Thr172); liver tissue, 40 mg/kg/day): significantly increased | protein contents of phospho-AMPK (phospho-AMPK (Thr172); skeletal muscle, 10 mg/kg/day): significantly increased | protein contents of phospho-AMPK (phospho-AMPK (Thr172); skeletal muscle, 20 mg/kg/day): significantly increased | protein contents of phospho-AMPK (phospho-AMPK (Thr172); skeletal muscle, 40 mg/kg/day): significantly increased
